In US11857535B2, “Methods of treating mutant lymphomas” (Kymera Therapeutics, Inc., priority 2020, dated 2024) one finds target exposure range AUC0-168 data, which are given here for one compound.

A short description of the data set: 7.2 Pharmacokinetic and tolerability characterization, intravenous bolus, cynomolgus monkeys. The conditions noted are these: cynomolgus monkey, in vivo, IV dosing in NHP. From the text:
7.2 Pharmacokinetic and Tolerability Characterization following Intravenous Bolus Administration to Male and Female Cynomolgus Monkeys
The objective of this study is to determine the pharmacokinetics and tolerability of Compound A following intravenous bolus administrations of Compound A on a single day or two consecutive days in male and female cynomolgus monkeys. The test article will be measured in plasma at selected time points for up to 14 days post dosing.
Purpose: To prepare a 20 mgA/mL solution of 20%:80% Compound A:HPBCD SDD in an aqueous vehicle comprised of 5 wt % TPGS in 0.1 M Acetate suitable for IV dosing in NHP. […]
Bioanalytical method development and sample analysis • LC-MS/MS method development: • 1. A LC-MS/MS method for the quantitative determination of test compound in biological matrix will be developed under non-GLP compliance. • 2. […] N in 1 cassette LC-MS/MS method can be developed for samples coming from different studies as long as these studies belong to same sponsor and the interference among all cassette analytes will be evaluated during the method development. • 5. […] If such kind cassette assay is still requested by the study sponsor, interference between analytes will not be evaluated but the LC separation of those analytes by using a generic method will be tried. […]

The structures appear in SMILES notation. Like-named read-outs stand apart in the source and are kept apart here.

`CC(C)(O)c1cc2nc([C@H]3CC[C@H](CN4CC5(CC(CCNc6cccc7c6C(=O)N(C6CCC(=O)NC6=O)C7=O)C5)C4)CC3)sc2cc1NC(=O)c1cccc(C(F)(F)F)n1` (some centres unmarked) [Compound A, N-(2-((1r,4r)-4-((6-(2-((2-(2,6-dioxopiperidin-3-yl)-1,3-dioxoisoindolin-4-yl)amino)ethyl)-2-azaspiro[3.3]heptan-2-yl)methyl)cyclohexyl)-5-(2-hydroxypropan-2-yl)benzo[d]thiazol-6-yl)-6-(trifluoromethyl)picolinamide]: the target exposure range AUC0-168 runs as follows: (schedule D1, 2, read-out: Target exposure Range (Ly10-DHL2) AUC0-168) 12 to 36 µM·h; (schedule D1, read-out: Target exposure Range (Ly10-DHL2) AUC0-168) 24 to 72 µM·h.
